# Source: paper PMC4805166, “Synthetic Cyclolipopeptides Selective against Microbial, Plant and Animal Cell Targets by Incorporation of D-Amino Acids or Histidine” (PLoS ONE, 2016)
# Values joined by “and” are separate entries in the source; they are usually repeats but may differ in a detail not shown here. Equal values may be shown once. Read-outs that look alike come from different tables or passages of the source. Where a SMILES comes first, the peptide text is derived from it. Side-chain parts run from the residue outwards. [ ]: non-standard residue; d: D form. The star is where a group is joined. Pentanoyl(4-Me) = CC(C)CCC(=O)*; Octanoyl = CCCCCCCC(=O)*; Hexanoyl = CCCCCC(=O)*
# What was measured:
# [1] = system: Pseudomonas syringae pv. syringae EPS94; format: cell-based; conditions: 48 h
# Method: (§1) The following plant pathogenic bacterial strains were used: Erwinia amylovora PMV6076 (Institut National de la Recherche Agronomique, Angers, France), Pseudomonas syringae pv. syringae EPS94 (Institut de Tecnologia Agroalimentària, Universitat de Girona, Spain) and Xanthomonas axonopodis pv. vesicatoria 2133–2 (Instituto Valenciano de Investigaciones Agrarias, Valencia, Spain). All bacteria were stored in Luria Bertani (LB) broth supplemented with glycerol (20%) and maintained at -80°C. Bacteria were scrapped from LB agar after growing for 24–48 h at 25°C. The cell material was suspended in sterile water to obtain a suspension of 10^8 CFU mL^-1.
# (§2) Lyophilized peptides were solubilized in sterile Milli-Q water to a final concentration of 1 mM and filter sterilized through a 0.22-μm pore filter. For minimum inhibitory concentration (MIC) assessment, dilutions of the compounds were made to obtain a stock concentration of […]. For antibacterial activity twenty microlitres of each dilution were mixed in a microtiter plate well with 20 μL of the corresponding suspension of the bacterial indicator, 160 μL of Trypticase Soy Broth (TSB) (BioMèrieux, France) to a total volume of 200 μL. For antifungal activity 20 μL of each stock solution were mixed in a microtiter plate well with 80 μL of the corresponding suspension of the fungal pathogen and 100 μL of double concentrated PDB to a total volume of 200 μL containing 0.003% w/v of choramphenicol.
# (§3) Three replicates for each strain, compound and concentration were used. Microbial growth was determined by optical density measurement at 600 nm (Bioscreen C, Labsystem, Helsinki, Finland). For antibacterial activity microplates were incubated at 25°C with 20 sec shaking before hourly absorbance measurement for 48 h. For antifungal activity microplates were incubated at 20°C with 1 min shaking before absorbance measurement that were done every two hours during seven days. The experiment was repeated twice. The MIC was taken as the lowest compound concentration with no growth at the end of the experiment.
# [2] = system: Xanthomonas axonopodis pv. vesicatoria 2133–2; format: cell-based; conditions: TSB, 25°C, 48 h, OD 600 nm; tested at 3.1, 6.2, 12.5, 25, 50 μM; three replicates, experiment repeated twice; MIC = lowest concentration with no growth
# Method: as §1, §2, §3
# [3] = system: Erwinia amylovora PMV6076; assay: MIC, in vitro growth inhibition; format: cell-based; conditions: TSB, 25°C, 48 h, OD 600 nm; tested at 3.1, 6.2, 12.5, 25, 50 μM; three replicates, experiment repeated twice; MIC = lowest concentration with no growth
# Method: as §1, §2, §3
# [4] = system: Fusarium oxysporum f. sp. lycopersici FOL 3 race 2; assay: MIC, antifungal growth inhibition; format: cell-based
# Method: Fusarium oxysporum f. sp. lycopersici FOL 3 race 2 (ATCC 201829, American Type Culture Collection) was used as fungal pathogen. The strain was cultured on potato dextrose agar (PDA) plates (Difco) and microconidia were obtained after growth at 25°C. The concentration of conidia was determined using a hemacytometer and adjusted to 10^4 conidia mL^-1.
# as §2, §3
# [5] = system: erythrocyte suspensions of horse blood; conditions: horse erythrocytes 5% vol/vol, TRIS buffer pH 7.2, 1 h at 37°C, absorbance 540 nm, relative to melittin 100 μM, ± confidence interval (α = 0.05); for Hemolysis (%) 150 µM: 150 µM peptide; for Hemolysis (%) 250 µM: 250 µM peptide;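 as to all read-outs here: Read-out is hemoglobin release into the supernatant, with a buffer-only blank subtracted as the 0% baseline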
# [6] = PDB with 0.003% chloramphenicol, 20°C, seven days, OD 600 nm, tested at 3.1, 6.2, 12.5, 25, 50 μM, three replicates, repeated twice
Compound,MIC Pss [1] [µM],MIC Xav [2],MIC Ea [3] [µM],"MIC Fo [4, 6] [µM]",Hemolysis (%) 150 µM [5] [%],Hemolysis (%) 250 µM [5] [%],MIC Fo [4] [µM]
"CCCCCC(=O)NCCCC[C@@H]1NC(=O)[C@H](CCCCN)NC(=O)[C@H](CC(C)C)NC(=O)[C@H](CCCCN)NC(=O)[C@H](CCCCN)NC(=O)[C@H](CCC(N)=O)NC(=O)[C@H](CC(C)C)NC(=O)[C@H](CCCCN)NC(=O)[C@H](CCCCN)NC(=O)[C@@H](Cc2ccccc2)NC1=O [BPC624, c(KKLKK(CO-nC5H11)fKKLQ)] (cyclo(KKLKK(Hexanoyl)[dF]KKLQ))",12.5 to 25,6.2 to 12.5 µM,25 to 50,6.2 to 12.5,53 ± 5,64 ± 9,
"CC(C)CCC(=O)NCCCC[C@@H]1NC(=O)[C@H](CCCCN)NC(=O)[C@H](CC(C)C)NC(=O)[C@H](CCCCN)NC(=O)[C@H](CCCCN)NC(=O)[C@H](CCC(N)=O)NC(=O)[C@H](CC(C)C)NC(=O)[C@H](CCCCN)NC(=O)[C@H](CCCCN)NC(=O)[C@@H](Cc2ccccc2)NC1=O [BPC626, c(KKLKK(CO-isoC5H11)fKKLQ)] (cyclo(KKLKK(Pentanoyl(4-Me))[dF]KKLQ))",12.5 to 25,6.2 to 12.5 µM,25 to 50,6.2 to 12.5,51 ± 7,54 ± 4,
"CCCCCC(=O)NCCCC[C@H]1NC(=O)[C@H](CCCCN)NC(=O)[C@H](CC(C)C)NC(=O)[C@H](CCCCN)NC(=O)[C@H](CCCCN)NC(=O)[C@H](CCC(N)=O)NC(=O)[C@H](CC(C)C)NC(=O)[C@H](CCCCN)NC(=O)[C@H](CCCCN)NC(=O)[C@H](Cc2ccccc2)NC1=O [BPC628, c(KKLKk(CO-nC5H11)FKKLQ)] (cyclo(FKKLQKKLK[dK](Hexanoyl)))",12.5 to 25,6.2 to 12.5 µM,25 to 50,6.2 to 12.5,19 ± 2,34 ± 3,
"CC(C)CCC(=O)NCCCC[C@H]1NC(=O)[C@H](CCCCN)NC(=O)[C@H](CC(C)C)NC(=O)[C@H](CCCCN)NC(=O)[C@H](CCCCN)NC(=O)[C@H](CCC(N)=O)NC(=O)[C@H](CC(C)C)NC(=O)[C@H](CCCCN)NC(=O)[C@H](CCCCN)NC(=O)[C@H](Cc2ccccc2)NC1=O [BPC630, c(KKLKk(CO-isoC5H11)FKKLQ)] (cyclo(FKKLQKKLK[dK](Pentanoyl(4-Me))))",6.2 to 12.5,6.2 to 12.5 µM,25 to 50,6.2 to 12.5,22 ± 2,28 ± 3,
"CCCCCC(=O)NCCCC[C@@H]1NC(=O)[C@H](CCCCN)NC(=O)[C@H](CC(C)C)NC(=O)[C@H](CCCCN)NC(=O)[C@H](CCCCN)NC(=O)[C@H](CCC(N)=O)NC(=O)[C@H](CC(C)C)NC(=O)[C@H](CCCCN)NC(=O)[C@H](CCCCN)NC(=O)[C@H](Cc2c[nH]cn2)NC1=O [BPC636, c(KKLKK(CO-nC5H11)HKKLQ)] (cyclo(HKKLQKKLKK(Hexanoyl)))",6.2 to 12.5,12.5 to 25 µM,25 to 50,6.2 to 12.5,5 ± 2,16 ± 5,
"CC(C)CCC(=O)NCCCC[C@@H]1NC(=O)[C@H](CCCCN)NC(=O)[C@H](CC(C)C)NC(=O)[C@H](CCCCN)NC(=O)[C@H](CCCCN)NC(=O)[C@H](CCC(N)=O)NC(=O)[C@H](CC(C)C)NC(=O)[C@H](CCCCN)NC(=O)[C@H](CCCCN)NC(=O)[C@H](Cc2c[nH]cn2)NC1=O [BPC638, c(KKLKK(CO-isoC5H11)HKKLQ)] (cyclo(HKKLQKKLKK(Pentanoyl(4-Me))))",6.2 to 12.5,25 to 50 µM,25 to 50,6.2 to 12.5,6 ± 2,8 ± 5,
"CCCCCCCC(=O)NCCCC[C@H]1NC(=O)[C@H](CCCCN)NC(=O)[C@H](CC(C)C)NC(=O)[C@H](CCCCN)NC(=O)[C@H](CCCCN)NC(=O)[C@H](CCC(N)=O)NC(=O)[C@H](CC(C)C)NC(=O)[C@H](CCCCN)NC(=O)[C@H](CCCCN)NC(=O)[C@H](Cc2ccccc2)NC1=O [BPC666, c(KKLKk(CO-C7H15)FKKLQ)] (cyclo(FKKLQKKLK[dK](Octanoyl)))",12.5 to 25,12.5 to 25 µM,25 to 50,6.2 to 12.5,61 ± 2,73 ± 3,
"CCCCCCCC(=O)NCCCC[C@@H]1NC(=O)[C@H](CCCCN)NC(=O)[C@H](CC(C)C)NC(=O)[C@H](CCCCN)NC(=O)[C@H](CCCCN)NC(=O)[C@H](CCC(N)=O)NC(=O)[C@H](CC(C)C)NC(=O)[C@H](CCCCN)NC(=O)[C@H](CCCCN)NC(=O)[C@@H](Cc2ccccc2)NC1=O [BPC668, c(KKLKK(CO-C7H15)fKKLQ)] (cyclo(KKLKK(Octanoyl)[dF]KKLQ))",12.5 to 25,6.2 to 12.5 µM,25 to 50,6.2 to 12.5,79 ± 2,79 ± 1,
"CCCCCCCC(=O)NCCCC[C@@H]1NC(=O)[C@H](CCCCN)NC(=O)[C@H](CC(C)C)NC(=O)[C@H](CCCCN)NC(=O)[C@H](CCCCN)NC(=O)[C@H](CCC(N)=O)NC(=O)[C@H](CC(C)C)NC(=O)[C@H](CCCCN)NC(=O)[C@H](CCCCN)NC(=O)[C@H](Cc2c[nH]cn2)NC1=O [BPC670, c(KKLKK(CO-C7H15)HKKLQ)] (cyclo(HKKLQKKLKK(Octanoyl)))",12.5 to 25,12.5 to 25 µM,25 to 50,3.1 to 6.2,34 ± 1,40 ± 1,
"CCCCCC(=O)N[C@@H](CCCCN)C(=O)N[C@@H](CC(C)C)C(=O)NCCCC[C@H]1NC(=O)[C@H](CCCCN)NC(=O)[C@H](CC(C)C)NC(=O)[C@H](CCCCN)NC(=O)[C@H](CCCCN)NC(=O)[C@H](CCC(N)=O)NC(=O)[C@H](CC(C)C)NC(=O)[C@H](CCCCN)NC(=O)[C@H](CCCCN)NC(=O)[C@H](Cc2ccccc2)NC1=O [BPC672, c(KKLKk(LK-CO-nC5H11)FKKLQ)] (cyclo(FKKLQKKLK[dK]([Leu-Lys-Hexanoyl])))",6.2 to 12.5,3.1 to 12.5 µM and 6.2 to 12.5 µM,25 to 50,3.1 to 6.2,33 ± 2,33 ± 2,3.1 to 6.2
"CCCCCC(=O)N[C@@H](CCCCN)C(=O)N[C@@H](CC(C)C)C(=O)NCCCC[C@@H]1NC(=O)[C@H](CCCCN)NC(=O)[C@H](CC(C)C)NC(=O)[C@H](CCCCN)NC(=O)[C@H](CCCCN)NC(=O)[C@H](CCC(N)=O)NC(=O)[C@H](CC(C)C)NC(=O)[C@H](CCCCN)NC(=O)[C@H](CCCCN)NC(=O)[C@@H](Cc2ccccc2)NC1=O [BPC674, c(KKLKK(LK-CO-nC5H11)fKKLQ)] (cyclo(KKLKK([Leu-Lys-Hexanoyl])[dF]KKLQ))",6.2 to 12.5,3.1 to 12.5 µM and 6.2 to 12.5 µM,25 to 50,3.1 to 6.2,51 ± 2,56 ± 2,3.1 to 6.2
